According to the supplement of paper PMC11451515:

System: SEM cells
Assay: cell viability relative to DMSO control; higher = less cytotoxic
Settings: 48 h
Method in brief: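 Library compounds in DMSO were pin-dosed into 1536-well plates (5 μl) holding NOMO1 or SEM (500 cells/well) or P12-Ichikawa (1000 cells/well) leukemia cells, across an 11-point threefold series of 47 μM to 0.79 nM. Each cell line had been adapted for at least four passages in each medium. CellTiter-Glo One luminescence was read after 48 h at 37°C. Viability is the per-plate percentage relative to DMSO wells, with cell-free wells as background.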

[1] = HPLM + 10% dialyzed FBS, 0.000781 µM
[2] = HPLM + 10% dialyzed FBS, 0.00234 µM
[3] = HPLM + 10% dialyzed FBS, 0.00702 µM
[4] = HPLM + 10% dialyzed FBS, 0.0211 µM
[5] = HPLM + 10% dialyzed FBS, 0.0632 µM
[6] = HPLM + 10% dialyzed FBS, 0.19 µM
[7] = HPLM + 10% dialyzed FBS, 0.569 µM
[8] = HPLM + 10% dialyzed FBS, 1.71 µM
[9] = HPLM + 10% dialyzed FBS, 5.12 µM
[10] = HPLM + 10% dialyzed FBS, 15.4 µM
[11] = HPLM + 10% dialyzed FBS, 46.1 µM
[12] = RPMI 5 mM glucose + 10% FBS, 0.000781 µM
[13] = RPMI 5 mM glucose + 10% FBS, 0.00234 µM
[14] = RPMI 5 mM glucose + 10% FBS, 0.00702 µM
[15] = RPMI 5 mM glucose + 10% FBS, 0.0211 µM
[16] = RPMI 5 mM glucose + 10% FBS, 0.0632 µM
[17] = RPMI 5 mM glucose + 10% FBS, 0.19 µM
[18] = RPMI 5 mM glucose + 10% FBS, 0.569 µM
[19] = RPMI 5 mM glucose + 10% FBS, 1.71 µM
[20] = RPMI 5 mM glucose + 10% FBS, 5.12 µM
[21] = RPMI 5 mM glucose + 10% FBS, 15.4 µM
[22] = RPMI 5 mM glucose + 10% FBS, 46.1 µM
[23] = RPMI 5 mM glucose + 10% dialyzed FBS, 0.000781 µM
[24] = RPMI 5 mM glucose + 10% dialyzed FBS, 0.00234 µM
[25] = RPMI 5 mM glucose + 10% dialyzed FBS, 0.00702 µM
[26] = RPMI 5 mM glucose + 10% dialyzed FBS, 0.0211 µM
[27] = RPMI 5 mM glucose + 10% dialyzed FBS, 0.0632 µM
[28] = RPMI 5 mM glucose + 10% dialyzed FBS, 0.19 µM
[29] = RPMI 5 mM glucose + 10% dialyzed FBS, 0.569 µM
[30] = RPMI 5 mM glucose + 10% dialyzed FBS, 1.71 µM
[31] = RPMI 5 mM glucose + 10% dialyzed FBS, 5.12 µM
[32] = RPMI 5 mM glucose + 10% dialyzed FBS, 15.4 µM
[33] = RPMI 5 mM glucose + 10% dialyzed FBS, 46.1 µM

Row | SMILES | cell viability [1] | cell viability [2] | cell viability [3] | cell viability [4] | cell viability [5] | cell viability [6] | cell viability [7] | cell viability [8] | cell viability [9] | cell viability [10] | cell viability [11] | cell viability [12] | cell viability [13] | cell viability [14] | cell viability [15] | cell viability [16] | cell viability [17] | cell viability [18] | cell viability [19] | cell viability [20] | cell viability [21] | cell viability [22] | cell viability [23] | cell viability [24] | cell viability [25] | cell viability [26] | cell viability [27] | cell viability [28] | cell viability [29] | cell viability [30] | cell viability [31] | cell viability [32] | cell viability [33]
1 | Oc1cc(-c2nc(-c3ccccc3)[nH]c2-c2ccncc2)ccc1Cl | 105% | 115% | 118% | 110% | 104% | 122% | 103% | 104% | 107% | 100% | 80.3% | 120% | 114% | 115% | 117% | 107% | 111% | 122% | 116% | 106% | 111% | 45.2% | – | – | – | – | – | – | – | – | – | – | –
2 | C[S+](=O)([O-])Oc1ccc2c(NC(N)=O)c(C(=O)c3ccc(Cl)cc3Cl)oc2c1 | 98.3% | 103% | 107% | 109% | 109% | 104% | 110% | 117% | 129% | 120% | 120% | 93.7% | 95.9% | 106% | 109% | 117% | 105% | 106% | 114% | 103% | 122% | 112% | 82.9% | 91.6% | 102% | 94% | 97% | 103% | 105% | 92.7% | 98.2% | 92.5% | 105%
3 | COc1ccc(F)c(F)c1C(=O)c1cnc(NC2CCN([S+](C)(=O)[O-])CC2)nc1N | 94.9% | 103% | 109% | 113% | 109% | 113% | 64.6% | 79% | 41.6% | 4.32% | 1.78% | 115% | 130% | 121% | 130% | 123% | 135% | 80.4% | 83.1% | 43.4% | 3.24% | 1.43% | 101% | 97.7% | 111% | 98.2% | 99.3% | 114% | 77.4% | 91.1% | 54.1% | 3.36% | 1.73%
4 | CNC[C@H](O)[C@@H](O)[C@H](O)[C@H](O)CO | 96.3% | 106% | 103% | 106% | 106% | 114% | 127% | 63.4% | 121% | 40.9% | 112% | 103% | 96.2% | 107% | 93.9% | 117% | 115% | 132% | 61.3% | 112% | 24.9% | 114% | 98.1% | 118% | 98.8% | 88.8% | 116% | 103% | 122% | 58.3% | 136% | 28% | 119%
5 | CC(=O)SC[C@@H](C)C(=O)N1CCC[C@H]1C(=O)N[C@@H](Cc1ccccc1)C(=O)O | 116% | 107% | 99.6% | 110% | 115% | 103% | 111% | 106% | 107% | 66.7% | 83.3% | 83.8% | 86.2% | 95.3% | 98.1% | 105% | 97.7% | 110% | 97.2% | 113% | 87.1% | 72.6% | 95.1% | 98.3% | 114% | 104% | 104% | 103% | 107% | 101% | 110% | 101% | 85.7%
6 | CCCCc1ccc2[nH]c(NC(=O)OC)nc2c1 | 75.4% | 92.3% | 98.4% | 79.4% | 72.3% | 26.6% | 25.9% | 23.8% | 26.2% | 23% | 16.1% | 80% | 81.5% | 87.2% | 75.5% | 52.4% | 16.4% | 15.6% | 14.5% | 18% | 13.1% | 10.8% | 98.8% | 95.8% | 102% | 77.2% | 56.9% | 23.5% | 18.2% | 20.8% | 23.6% | 19.4% | 12.4%
7 | c1cc(-c2cnn3cc(-c4ccc(OCCN5CCCCC5)cc4)cnc23)ccn1 | 69.3% | 58.4% | 94.8% | 34.4% | 32.7% | 31.1% | 27.9% | 96.2% | 88.5% | 8.18% | 30.9% | 103% | 76.7% | 121% | 63.7% | 51.6% | 43.4% | 34.8% | 103% | 105% | 40.4% | 23.3% | 91.5% | 60.9% | 99.8% | 45.4% | 31.8% | 24% | 25.9% | 90% | 78.4% | 42.2% | 23.7%
8 | COc1ccc(CCC(=O)c2c(O)cc(O[C@@H]3O[C@H](CO)[C@@H](O)[C@H](O)[C@H]3O[C@@H]3O[C@@H](C)[C@H](O)[C@@H](O)[C@H]3O)cc2O)cc1O | 112% | 115% | 120% | 128% | 128% | 119% | 128% | 119% | 134% | 124% | 116% | – | – | – | – | – | – | – | – | – | – | – | – | – | – | – | – | – | – | – | – | – | –
